In data set [1] the test system is Oryctolagus cuniculus. The data set can be described thus: Average IOP after administration was determined. In kind it is functional.
Data set [2] relates to Oryctolagus cuniculus. The data set is described as follows: Compound was tested for decrease in IOP for 2-3 h (in vivo); Significant reduction was observed. In kind it is functional, organism-based.
A short description of data set [3]: Time within which only 10% of the drug was degraded. The conditions noted are these: pH 4.50, room temperature. In kind it is ADME.
Data set [4] concerns Oryctolagus cuniculus. The data set is described as follows: Compound was tested for decrease in IOP (in vivo); 18% reduction of the control 21.4+/-0.3 mmHg. The format is functional.

Calls of active or inactive are those of the source. The calls are words filed in the database; no cut-off is given here.

For the compound `C=CCc1ccccc1OCC(O)CNC(C)C` (configuration not stated) [ALPRENOLOL], the “Average IOP” value with Oryctolagus cuniculus [1] was 20.6 mmHg. In addition, the outcome in the data set with Oryctolagus cuniculus [2] was Active.
As to `C=CCc1ccccc1OC/C(CNC(C)C)=N\O`, in the data set with Oryctolagus cuniculus [1], the “Average IOP” value is 21.8 mmHg. Further, in data set [3], the t0.9 was 44 days.
In the data set with Oryctolagus cuniculus [4], `C=CCc1ccccc1OC/C(CNC(C)C)=N\OC` had an Activity of 3.8 mmHg. In the data set with Oryctolagus cuniculus [1], the “Average IOP” value was 21.4 mmHg. In data set [3], this compound had a t0.9 of 75 days.

For the origin of these results see ChEMBL document CHEMBL1128388, “Ocular delivery of the beta-adrenergic antagonist alprenolol by sequential bioactivation of its methoxime analogue” (J Med Chem, 1995).
